Measurements: patent publication US20230277483A1, “COMPOSITIONS AND METHODS TO TREAT INFLAMMATION” (University of Iowa Research Foundation, priority 2022, published 2023)

Columns and labels:
Pg = Pg attachment (early biofilm formation, colonization) on culture plates; format: cell-based, Porphyromonas gingivalis
Protocol: (§1) Sg metabolites promote commensal bacterial proliferation and inhibit periodontopathogenic bacterial proliferation and colonization. Commensal bacteria, Sg, S. sanguinis (Ss, ATCC10556), S. mitis (Sm, ATCC49456) and S. oralis (So, ATCC 35037) were cultured in BHI medium. In addition, pathogenic bacteria, Pg was cultured using BHI and Tf (ATCC43037), and Td (ATCC 35405) were grown in Thioglycollate medium with vitamin K and Hemin in 90% N2, 5% H2, 5% CO2. The Sg metabolites were diluted using DMEM and added to the bacteria with the similar OD600 value. The same amount of DMEM was used as a control. During the exponential growth of bacteria, the OD600 value was measured to determine the proliferation. […] In addition, to determine the function of Sg metabolites on Pg colonization, Pg were inoculated in 24-well plates containing BHI or BHI supplemented with DMEM or Sg metabolites. […]
(§2) HCA promotes proliferation of health related bacteria and inhibits proliferation and attachment of periodontopathogenic bacteria. […] The composition of the microbiomes was determined by amplifying the V3 and V4 regions of the 16S rRNA genes. Raw data in FASTQ format were filtered and denoised using DADA2 (Divisive Amplicon Denoising Algorithm) to generate amplicon sequence variants (ASV) or operational taxonomical units (OTUs) that were then analyzed by QIIME2.

S. mitis (Sm, ATCC49456) = experiment: Bacterial proliferation (growth profile); format: cell-based, Streptococcus mitis; conditions: HCA at 0.1 μM; aerobic culture
Protocol: as §1, §2

[1] = system: primary human gingival fibroblasts (HGF); experiment: MTT toxicity assay; format: cell-based; conditions: HCA from 0.1 to 50 μM; 24 and 48 hours

O=C(O)CCCCCO [HCA, 6-hydroxycaproic acid]
attachment of P. gingivalis (Pg; HCA at 0.01 μM): less of an effect
attachment of P. gingivalis (Pg; HCA at 0.05 μM vs untreated control, optical density): significantly reduced
proliferation of S. mitis (S. mitis (Sm, ATCC49456)): improve proliferation
toxicity (MTT assay) [1]: No toxicity
